pIC50: −log10 of the molar value.
Biological target: T1, human capsaicin receptor (Homo sapiens, UniProt Q8NER1)
T1 construct: pBK-CMV expression construct encoding the full length human capsaicin receptor; expressed in transfected cells
Test: Calcium mobilization assay, determination of antagonist activity (Example 6)
Type: cell-based
Settings: Table II
Protocol: A cDNA encoding full length human capsaicin receptor (SEQ ID NO: 1, 2 or 3 of U.S. Pat. No. 6,482,611) was subcloned in the plasmid pBK-CMV (Stratagene, La Jolla, Calif.) for recombinant expression in mammalian cells.
Human embryonic kidney (HEK293) cells were transfected with the pBK-CMV expression construct encoding the full length human capsaicin receptor using standard methods. The transfected cells were selected for two weeks in media containing G418 (400 μg/ml) to obtain a pool of stably transfected cells. Independent clones were isolated from this pool by limiting dilution to obtain clonal stable cell lines for use in subsequent experiments.
This Example illustrates representative calcium mobilization assays for use in evaluating test compounds for agonist and antagonist activity.
Cells transfected with expression plasmids (as described in Example 4) and thereby expressing human capsaicin receptor are seeded and grown to 70-90% confluency in FALCON black-walled, clear-bottomed 96-well plates (#3904, BECTON-DICKINSON, Franklin Lakes, N.J.). The culture medium is emptied from the 96 well plates and FLUO-3 AM calcium sensitive dye (Molecular Probes, Eugene, Oreg.) is added to each well (dye solution: 1 mg FLUO-3 AM, 440 μL DMSO and 440 pi 20% pluronic acid in DMSO, diluted 1:250 in Krebs-Ringer HEPES (KRH) buffer (25 mM HEPES, 5 mM KCl, 0.96 mM NaH2PO4, 1 mM MgSO4, 2 mM CaCl2, 5 mM glucose, 1 mM probenecid, pH 7.4), 50 μl diluted solution per well). Plates are covered with aluminum foil and incubated at 37° C. for 1-2 hours in an environment containing 5% CO2. After the incubation, the dye is emptied from the plates, and the cells are washed once with KRH buffer, and resuspended in KRH buffer.
To measure the ability of a test compound to agonize or antagonize a calcium mobilization response in cells expressing capsaicin receptors to capsaicin or other vanilloid agonist, the EC50 of the agonist capsaicin is first determined. An additional 20 μl of KRH buffer and 1 μl DMSO is added to each well of cells, prepared as described above. 100 μl capsaicin in KRH buffer is automatically transferred by the FLIPR instrument to each well. Capsaicin-induced calcium mobilization is monitored using either FLUOROSKAN ASCENT (Labsystems; Franklin, Mass.) or FLIPR (fluorometric imaging plate reader system; Molecular Devices, Sunnyvale, Calif.) instruments. Data obtained between 30 and 60 seconds after agonist application are used to generate an 8-point concentration response curve, with final capsaicin concentrations of 1 nM to 3 μM. KALEIDAGRAPH software (Synergy Software, Reading, Pa.) is used to fit the data to the equation: y=a*(1/(1+(b/x)^c)) to determine the 50% excitatory concentration (EC50) for the response. In this equation, y is the maximum fluorescence signal, x is the concentration of the agonist or antagonist (in this case, capsaicin), a is the Emax, b corresponds to the EC50 value and c is the Hill coefficient. Determination of Agonist Activity
Test compounds are dissolved in DMSO, diluted in 20 μl KRH buffer so that the final concentration of test compounds in the assay well is between 1 μM and 5 μM, and added to cells prepared as described above. The 96 well plates containing prepared cells and test compounds are incubated in the dark, at room temperature for 0.5 to 6 hours. It is important that the incubation not continue beyond 6 hours. Just prior to determining the fluorescence response, 100 pi capsaicin in KRH buffer at twice the EC50 concentration determined as described above is automatically added by the FLIPR instrument to each well of the 96 well plate for a final sample volume of 200 μl and a final capsaicin concentration equal to the EC50. The final concentration of test compounds in the assay wells is between 1 μM and 5 μM. […]

[1] = determined as described in Example 6 (antagonist activity), "*" = 1 micromolar or less
[2] = determined as described in Example 6 (calcium mobilization, antagonist activity)
[3] = IC50 determined as described in Example 6

T1 sequence (Q8NER1 whole entry): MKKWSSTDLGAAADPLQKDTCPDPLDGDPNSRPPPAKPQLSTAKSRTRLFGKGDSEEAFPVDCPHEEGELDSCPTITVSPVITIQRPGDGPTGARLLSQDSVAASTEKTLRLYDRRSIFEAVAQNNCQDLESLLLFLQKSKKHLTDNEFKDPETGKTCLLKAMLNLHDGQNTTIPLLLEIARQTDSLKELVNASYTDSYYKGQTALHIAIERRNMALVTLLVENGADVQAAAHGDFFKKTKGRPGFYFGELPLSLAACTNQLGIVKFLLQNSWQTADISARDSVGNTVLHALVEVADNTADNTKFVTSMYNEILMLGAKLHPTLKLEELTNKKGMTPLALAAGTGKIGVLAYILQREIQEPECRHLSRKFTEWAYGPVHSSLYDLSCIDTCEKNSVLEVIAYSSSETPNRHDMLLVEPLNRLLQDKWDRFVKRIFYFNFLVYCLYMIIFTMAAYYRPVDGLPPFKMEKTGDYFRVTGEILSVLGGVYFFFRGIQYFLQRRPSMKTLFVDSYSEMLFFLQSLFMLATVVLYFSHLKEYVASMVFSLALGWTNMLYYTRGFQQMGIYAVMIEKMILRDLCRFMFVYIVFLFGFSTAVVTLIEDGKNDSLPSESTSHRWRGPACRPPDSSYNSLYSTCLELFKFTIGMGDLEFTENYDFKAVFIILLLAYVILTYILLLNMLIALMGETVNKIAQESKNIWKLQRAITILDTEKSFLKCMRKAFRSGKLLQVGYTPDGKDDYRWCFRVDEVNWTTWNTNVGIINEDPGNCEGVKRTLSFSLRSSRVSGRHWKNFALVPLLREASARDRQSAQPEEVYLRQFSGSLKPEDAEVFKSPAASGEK

pIC50 [1] | pIC50 [2] | Structure (SMILES) | further results
≥ 6.00 |  | Cc1cc(-c2cc(N3CCN(c4nccnc4Cl)C[C@H]3C)nc(N3CCCC3C)n2)ccc1F (stereo in doubt) [Example 915, 4-[4-(3-chloropyrazin-2-yl)-2-methylpiperazin-1-yl]-6-(4-fluoro-3-methylphenyl)-2-(2-methylpyrrolidin-1-yl)pyrimidine] | 
≥ 6.00 |  | C[C@@H]1CN(c2nccnc2Cl)CCN1c1cc(-c2ccc(F)cc2)nc(N2CCC[C@H]2C)n1 [Example 927, 4-[(2R)-4-(3-chloropyrazin-2-yl)-2-methylpiperazin-1-yl]-6-(4-fluorophenyl)-2-[(2R)-2-methylpyrrolidin-1-yl]pyrimidine] | 
≥ 6.00 |  | C[C@H]1CN(c2nccnc2Cl)CCN1c1cc(-c2ccc(F)c(F)c2)nc(N2CCOCC2)n1 (stereo in doubt) [Example 939, 4-[4-[4-(3-chloropyrazin-2-yl)-2-methylpiperazin-1-yl]-6-(3,4-difluorophenyl)pyrimidin-2-yl]morpholine] | 
 | ≥ 6.00 | CC1(C)CCCN(c2nc(-c3ccc(F)c(Cl)c3)cc(N3CCN(c4ncccc4C(F)(F)F)CC3)n2)C1 [Example 612, 4-(3-chloro-4-fluorophenyl)-2-(3,3-dimethylpiperidin-1-yl)-6-{4-[3-(trifluoromethyl)pyridin-2-yl]piperazin-1-yl}pyrimidine] | 
 |  | N#Cc1cccc(-c2nc(N3CCOCC3)nc(N3CCN(c4ncccc4C(F)(F)F)CC3)n2)c1 [Example 435, 3-(4-morpholin-4-yl-6-{4-[3-(trifluoromethyl)pyridin-2-yl]piperazin-1-yl}-1,3,5-triazin-2-yl)benzonitrile] | pIC50 [3]: ≥ 6.00
≥ 6.00 |  | C[C@@H]1CN(c2ncccc2C(F)(F)F)CCN1c1cc(-c2ccc(F)c(F)c2)nc(N2CCCC2)n1 [Example 791, 4-(3,4-difluorophenyl)-6-{(2R)-2-methyl-4-[3-(trifluoromethyl)pyridin-2-yl]piperazin-1-yl}-2-pyrrolidin-1-ylpyrimidine] | 
 |  | C[C@@H]1CN(c2ncccc2Cl)CCN1c1cc(-c2ccccc2)nc(N2CCOCC2)n1 [Example 479, 4-{4-[(2R)-4-(3-chloropyridin-2-yl)-2-methylpiperazin-1-yl]-6-phenylpyrimidin-2-yl}morpholine] | pIC50 [3]: ≥ 6.00
 |  | Cc1cccc(-c2nc(N3CCOCC3)nc(N3CCN(c4ccccn4)CC3)n2)c1C [Example 271, 2-(2,3-dimethylphenyl)-4-morpholin-4-yl-6-(4-pyridin-2-ylpiperazin-1-yl)-1,3,5-triazine] | pIC50 (determined as described in Example 6, class symbol): ≥ 6.00
 | ≥ 6.00 | CC1CNCCN1c1nc(-c2ccc(F)c(Cl)c2)cc(N2CCN(c3ncccc3C(F)(F)F)CC2)n1 (stereo not drawn) [Example 629, 4-(3-chloro-4-fluorophenyl)-2-(2-methylpiperazin-1-yl)-6-{4-[3-(trifluoromethyl)pyridin-2-yl]piperazin-1-yl}pyrimidine] | 
≥ 6.00 |  | C[C@@H]1CN(c2ncccc2Cl)CCN1c1cc(-c2ccc(F)c(F)c2)nc(N2CCC[C@H]2C)n1 [Example 925, 4-[(2R)-4-(3-chloropyridin-2-yl)-2-methylpiperazin-1-yl]-6-(3,4-difluorophenyl)-2-[(2R)-2-methylpyrrolidin-1-yl]pyrimidine] | 
≥ 6.00 |  | C[C@@H]1CN(c2ccncc2Cl)CCN1c1cc(-c2ccc(F)c(F)c2)nc(Cl)n1 [Example 826, 2-chloro-4-[(2R)-4-(3-chloropyridin-4-yl)-2-methylpiperazin-1-yl]-6-(3,4-difluorophenyl)pyrimidine] | 
 | ≥ 6.00 | Cc1cccnc1N1CCN(c2cc(-c3ccc(F)c(Cl)c3)nc(N3CCOCC3)n2)CC1C (stereo not drawn) [Example 646, 4-{4-(3-chloro-4-fluorophenyi)-6-[3-methyl-4-(3-methylpyridin-2-yl)piperazin-1-yl]pyrimidin-2-yl}morpholine] | 
≥ 6.00 |  | CC1CCN1c1nc(-c2ccc(F)c(Cl)c2)cc(N2CCN(c3ncccc3C(F)(F)F)C[C@H]2C)n1 (stereo partly drawn) [Example 781, 4-(3-chloro-4-fluorophenyl)-2-(2-methylazetidin-1-yl)-6-{(2R)-2-methyl-4-[3-(trifluoromethyl)pyridin-2-yl]piperazin-1-yl}pyrimidine] | 
 |  | C[C@H]1CN(c2nccnc2Cl)CCN1c1cc(-c2ccc(F)c(Cl)c2)nc(N2CCOCC2)n1 [Example 975, 4-{4-(3-chloro-4-fluorophenyl)-6-[(2S)-4-(3-chloropyrazin-2-yl)-2-methylpiperazin-1-yl]pyrimidin-2-yl}morpholine] | pIC50 (IC50 determined as described in Example 6 (antagonist activity, calcium mobilization)): ≥ 6.00
 |  | C[C@@H]1CN(c2ncccc2C#N)CCN1c1cc(-c2ccc3ccccc3c2)nc(N2CCOCC2)n1 [Example 489, 2-{(3R)-3-methyl-4-[2-morpholin-4-yl-6-(2-naphthyl)pyrimidin-4-yl]piperazin-1-yl}nicotinonitrile] | pIC50 [3]: ≥ 6.00
≥ 6.00 |  | C[C@@H]1CCCN1c1nc(-c2ccc(F)c(Cl)c2)cc(N2CCN(c3ncccc3Cl)C[C@@H]2C)n1 [Example 945, 4-(3-chloro-4-fluorophenyl)-6-[(2S)-4-(3-chloropyridin-2-yl)-2-methylpiperazin-1-yl]-2-[(2R)-2-methylpyrrolidin-1-yl]pyrimidine] | 
 | ≥ 6.00 | CC1CCCN1c1nc(-c2ccc(F)c(F)c2)cc(N2CCN(c3ncccc3F)CC2)n1 (stereo not drawn) [Example 748, 4-(3,4-difluorophenyl)-6-[4-(3-fluoropyridin-2-yl)piperazin-1-yl]-2-(2-methylpyrrolidin-1-yl)pyrimidine] | 
≥ 6.00 |  | C[C@@H]1CN(c2ncccc2C(F)(F)F)CCN1c1cc(-c2ccc(F)c(F)c2)nc(N2CCCCC2)n1 [Example 793, 4-(3,4-difluorophenyl)-6-{(2R)-2-methyl-4-[3-(trifluoromethyl)pyridin-2-yl]piperazin-1-yl}-2-piperidin-1-ylpyrimidine] | 
 | ≥ 6.00 | CCN(CC)c1nc(-c2ccc(F)c(F)c2)cc(N2CCN(c3ncccc3C(F)(F)F)CC2)n1 [Example 596, 4-(3,4-difluorophenyl)-N,N-diethyl-6-{4-[3-(trifluoromethyl)pyridin-2-yl]piperazin-1-yl}pyrimidin-2-amine] | 
 | ≥ 6.00 | CCN1CCN(c2nc(-c3ccc(F)c(Cl)c3)cc(N3CCN(c4ncccc4C(F)(F)F)CC3)n2)CC1 [Example 623, 4-(3-chloro-4-fluorophenyl)-2-(4-ethylpiperazin-1-yl)-6-{4-[3-(trifluoromethyl)pyridin-2-yl]piperazin-1-yl}pyrimidine] | 
 | ≥ 6.00 | CCCN1CCN(c2nc(-c3ccc(F)c(C)c3)cc(N3CCN(c4ncccc4C(F)(F)F)CC3)n2)CC1 [Example 682, 4-(4-fluoro-3-methylphenyl)-2-(4-propylpiperazin-1-yl)-6-{4-[3-(trifluoromethyl)pyridin-2-yl]piperazin-1-yl}pyrimidine] | 
 |  | Fc1ccc(-c2nc(N3CCOCC3)nc(N3CCN(c4ncccc4C(F)(F)F)CC3)n2)cc1F [Example 428, 2-(3,4-difluorophenyl)-4-morpholin-4-yl-6-{4-[3-(trifluoromethyl)pyridin-2-yl]piperazin-1-yl}-1,3,5-triazine] | pIC50 [3]: ≥ 6.00
 |  | Fc1ccc(-c2nc(N3CCOCC3)nc(N3CCN(c4ccccn4)CC3)n2)c(F)c1 [Example 423, 2-(2,4-difluorophenyl)-4-morpholin-4-yl-6-(4-pyridin-2-ylpiperazin-1-yl)-1,3,5-triazine] | pIC50 [3]: ≥ 6.00
 | ≥ 6.00 | Cc1cc(-c2cc(N3CCN(c4ncccc4C(F)(F)F)CC3)nc(Cl)n2)ccc1F [Example 638, 2-chloro-4-(4-fluoro-3-methylphenyl)-6-{4-[3-(trifluoromethyl)pyridin-2-yl]piperazin-1-yl}pyrimidine] | 

From US7566712B2, “Biaryl piperazinyl-pyridine analogues” (Neurogen Corporation, priority 2003, dated 2009)
